Assay: xn = mol fraction of the nth substance listed

CC(C)CCC[C@@H](C)[C@H]1CC[C@H]2[C@@H]3CC=C4C[C@@H](O)CC[C@]4(C)[C@H]3CC[C@]12C + Cc1ccccc1
viscosity [mPa·s], 101.33 kPa
Conditions | x1 = 0.0038 | x1 = 0.00638 | x1 = 0.01075 | x1 = 0.01353 | x1 = 0.01707 | x1 = 0.02159 | x1 = 0.02737 | x1 = 0.03485
298 K | 0.567 | 0.579 | 0.604 | 0.616 | 0.639 | 0.672 | 0.716 | 0.787
303 K | 0.534 | 0.546 | 0.569 | 0.579 | 0.599 | 0.628 | 0.668 | 0.731
313 K | 0.478 | 0.488 | 0.508 | 0.515 | 0.533 | 0.556 | 0.591 | 0.64
323 K | 0.432 | 0.44 | 0.458 | 0.464 | 0.476 | 0.497 | 0.523 | 0.562

CCCCCCCCCCO + Cc1ccccc1
viscosity [mPa·s], 101 kPa
Conditions | 298.15 K | 308.15 K
x2 = 0.0507 | 10.3 | 7.108
x2 = 0.1015 | 9.101 | 6.203
x2 = 0.1473 | 8.207 | 5.499
x2 = 0.2091 | 7.146 | 4.673
x2 = 0.2577 | 6.303 | 4.079
x2 = 0.3006 | 5.584 | 3.647
x2 = 0.3496 | 4.913 | 3.173
x2 = 0.4028 | 4.195 | 2.786
x2 = 0.4516 | 3.678 | 2.398
x2 = 0.4989 | 3.222 | 2.122
x2 = 0.5497 | 2.797 | 1.832
x2 = 0.6009 | 2.439 | 1.569
x2 = 0.6498 | 2.13 | 1.393
x2 = 0.7065 | 1.819 | 1.159
x2 = 0.7524 | 1.537 | 1.047
x2 = 0.8069 | 1.308 | 0.858
x2 = 0.8472 | 1.071 | 0.798
x2 = 0.9063 | 0.807 | 0.687
x2 = 0.953 | 0.608 | 0.585

Cc1ccccc1C + Cc1ccccc1
viscosity [mPa·s], 101.33 kPa
Conditions | x2 = 0.3003 | x2 = 0.3607 | x2 = 0.5223 | x2 = 0.6669 | x2 = 0.8205
293.15 K | 0.722 | 0.708 | 0.67 | 0.64 | 0.616
303.15 K | 0.636 | 0.626 | 0.601 | 0.567 | 0.546
313.15 K | 0.568 | 0.557 | 0.528 | 0.508 | 0.489
323.15 K | 0.507 | 0.5 | 0.472 | 0.456 | 0.441

CC(C)CCC[C@@H](C)[C@H]1CC[C@H]2[C@@H]3CC=C4C[C@@H](O)CC[C@]4(C)[C@H]3CC[C@]12C + ClC(Cl)(Cl)Cl
viscosity [mPa·s], 101.33 kPa
Conditions | x1 = 0.0058 | x1 = 0.00978 | x1 = 0.0123 | x1 = 0.01552 | x1 = 0.01963 | x1 = 0.02491 | x1 = 0.03174
298 K | 0.983 | 1.04 | 1.077 | 1.136 | 1.219 | 1.328 | 1.491
303 K | 0.912 | 0.962 | 0.996 | 1.045 | 1.12 | 1.212 | 1.355
313 K | 0.797 | 0.836 | 0.858 | 0.898 | 0.953 | 1.024 | 1.134
323 K | 0.705 | 0.738 | 0.753 | 0.785 | 0.826 | 0.881 | 0.96
